In one data set the test system is NF-κB. The data set can be described thus: NF-κB inhibitor screen: basal NF-κB-dependent luciferase expression in HEK/NF-κB cell line. It counts as cell-based. Conditions: 1 uM, determined as described in Example 398; for inhibition at 1 µM: read-out: NFkB inhibition @ 1 uM. The source says:
Development of NF-κB and AP-1 Screens: Two HEK293 cell lines were purchased from Panomics. One cell line was stably transfected with a plasmid in which luciferase expression is regulated by six copies of the NF-κB transcriptional element (5′-[…]-3′); and the other cell line was stably transfected with a plasmid in which luciferase expression is regulated by three copies of the AP-1 transcriptional element (TGACTAA). To test the biological activity of the promoters, the HEK/NF-κB cell line was stimulated with TNF-α (20 ng/ml) for 24 hours, and the HEK/AP-1 cell line was stimulated with PMA (10 ng/ml) for 24 hours. […] In addition, a pyrimidine carboxyimide that had previously been shown (ref. 58) to be an inhibitor of transcription mediated by NF-κB and AP-1 reduced luciferase activity by approximately 40% in each of the NF-κB and AP-1 cell lines.
The above two assays analyzed the effects of the compounds on post-transcriptional gene regulation, which is known to play a key role in cancer and inflammation. By contrast, the NF-κB assay and the following assay (AP-1) test whether the compounds act at the transcriptional level. Thirty-nine representative compounds were screened in an HEK/NF-κB cell line. HEK cells were stably transfected with a plasmid expressing luciferase under the control of the NF-κB promoter. These transfected cells were plated on a 96-well plate. As above, initial screening was carried out at 1.0 μM by adding compound in DMSO (0.3%) twenty-four hours after plating. Each compound was added to each of triplicate wells. DMSO (0.3%) was added to one set of wells as a control. Luciferase activity was determined using Promega's Brite-Glo kit, and the mean for each sample was normalized to that for DMSO.
The fourteen representative compounds identified in the eIF4E screen as interesting (Numbered 2, 3, 4, 6, 8, 11, 15, 20, 21, 24, 25, 32, 33, and 35) were then tested for luciferase activity in a six-point dose response (10 nM, 33 nM, 100 nM, 330 nM, 1000 nM, and 3300 nM). Screening was carried out as described above by monitoring the effects of the compounds on basal NF-κB-dependent luciferase expression. Each dose was used out in triplicate, and repeated between two and four times. Results were normalized by the average expression level at the lowest concentration level, as described above.

A further data set concerns carageenan-induced edema. Briefly: Carrageenan-induced rat paw edema test (anti-inflammatory activity). Conditions: carrageenan-induced rat paw edema, defined in Example 397; for inhibition in vivo at 50 mg/kg: Rattus norvegicus, po, 3 h, read-out: % Protection. It counts as in vivo, Sprague-Dawley rats. The method in brief: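 Edema was raised by sub-plantar injection of 1% carrageenan into the right hind paw, 1 h after dosing 18 h-fasted male/female Sprague-Dawley rats (150-250 g) with 50 mg/kg p.o. in 0.1% CMC. Swelling was measured by displacement 3 h later and expressed as % protection against saline control.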
(Carrageenan injected into the paw causes an acute inflammation.)

A further data set concerns AP-1. Briefly: AP-1 inhibitor screen: basal AP-1-dependent luciferase expression in HEK/AP-1 cell line. It counts as cell-based. Conditions: 1 uM, determined as described in Example 398; for inhibition at 1 µM: AP1. The source says: Development of NF-κB and AP-1 Screens: Two HEK293 cell lines were purchased from Panomics. One cell line was stably transfected with a plasmid in which luciferase expression is regulated by six copies of the NF-κB transcriptional element (5′-[…]-3′); and the other cell line was stably transfected with a plasmid in which luciferase expression is regulated by three copies of the AP-1 transcriptional element (TGACTAA). To test the biological activity of the promoters, the HEK/NF-κB cell line was stimulated with TNF-α (20 ng/ml) for 24 hours, and the HEK/AP-1 cell line was stimulated with PMA (10 ng/ml) for 24 hours.
HEK cells were stably transfected with a plasmid expressing luciferase under the control of the AP-1 promoter. The transfected cells were plated on a 96-well plate for 24 hr. Then 1.0 μM of each compound in DMSO (0.3%) was added to triplicate wells and incubated for 48 hr. DMSO (0.3%) was added to one set of triplicate wells as a control. Luciferase activity was determined using Promega's Brite-Glo kit, and the mean for each sample was normalized to that for DMSO.
Screening was carried out as described above, monitoring the compounds' effects on basal AP-1-dependent luciferase expression. Each dose-response experiment was carried out in triplicate and repeated between two and four times.

For the molecule `CCOC(=O)Nc1nc(C)c(-c2nc3ccccc3c(=O)n2-c2cccc(C)c2)s1`, the melting point was in the range of 210 to 211 °C.

As for `COC(=O)Nc1nc(C)c(-c2nc3ccccc3c(=O)n2-c2cccc(C)c2)s1`, the melting point fell in the range of 232 to 233 °C.

Turning to `Cc1cnc(-c2cc(-c3ccccc3)c(N3CCOCC3)s2)cc1OCC(F)(F)F` [Example 41, 4-{5-[5-Methyl-4-(2,2,2-trifluoro-ethoxy)-pyridine-2-yl]-3-phenyl-thiophene-2-yl}-morpholine], the melting point lay within 145 to 147 °C.

On to `Cc1nc(NC(=O)c2ccco2)sc1C(=O)c1sc(NC(=O)c2ccco2)nc1C` [Example 122, Bis-[2-(2-Furoyl-amino)-4-methyl-thiazole-5-yl]-methanone], for which the melting point lay in the range of 198 to 199 °C.

As for `CNc1nc(-c2ccccc2)c(-c2nc3ccccc3c(=O)n2-c2ccccc2C)s1` [Example 173, 2-(2-methylamino-4-phenyl-thiazol-5-yl)-3-o-tolyl-3H-quinazolin-4-one], the melting point was 220 to 225 °C.

Regarding `Cc1ccccc1-n1c(-c2sc(Nc3ccccc3)nc2-c2ccccc2)nc2ccccc2c1=O` [Example 174, 3-o-Tolyl-2-(4-phenyl-2-phenylamino-thiazol-5-yl)-3H-quinazolin-4-one], the melting point lay within 141 to 143 °C.

Turning to `Cc1ccccc1-n1c(-c2sc(NC(=O)c3ccccc3)nc2-c2ccccc2)nc2ccccc2c1=O` [Example 175, N-[5-(4-Oxo-3-o-tolyl-3,4-dihydro-quinazolin-2-yl)-4-phenyl-thiazole-2-yl]benzamide], the melting point was more than 275 °C.

Molecule `CCOC(=O)Nc1nc(-c2ccccc2)c(-c2nc3ccccc3c(=O)n2-c2cccc(C)c2)s1` [Example 184, [5-(4-Oxo-3-m-tolyl-3,4-dihydro-quinazolin-2-yl)-4-phenyl-thiazol-2-yl]-carbamic acid ethyl ester] showed a melting point of 261 to 263 °C.

Consider `COC(=O)Nc1nc(-c2ccccc2)c(-c2nc3ccccc3c(=O)n2-c2cccc(C)c2)s1` [Example 185, [5-(4-Oxo-3-m-tolyl-3,4-dihydro-quinazolin-2-yl)-4-phenyl-thiazol-2-yl]-carbamic acid methyl ester], for which the melting point lay within 268 to 269 °C.

`Cc1cccc(-n2c(-c3sc(Nc4ccccc4)nc3-c3ccccc3)nc3ccccc3c2=O)c1` [Example 187, 3-m-Tolyl-2-(4-phenyl-2-phenylamino-thiazol-5-yl)-3H-quinazolin-4-one]: the melting point was in the range of 105 to 107 °C.

The molecule `Cc1ccc(-n2c(-c3sc(Nc4ccccc4)nc3C)nc3ccccc3c2=O)cc1` [Example 191, 2-(4-Methyl-2-phenylamino-thiazol-5-yl)-3-p-tolyl-3H-quinazolin-4-one] came in with a melting point of 256 to 257 °C.

For the molecule `COC(=O)Nc1nc(-c2ccccc2)c(-c2nc3ccccc3c(=O)n2-c2ccc(C)cc2)s1` [Example 194, [5-(4-Oxo-3-p-tolyl-3,4-dihydro-quinazolin-2-yl)-4-phenyl-thiazol-2-yl]-carbamic acid methyl ester], the melting point was more than 275 °C.

`CNc1nc(-c2ccccc2)c(-c2nc3ccccc3c(=O)n2-c2ccc(C)cc2)s1` [Example 195, 2-(2-Methylamino-4-phenyl-thiazol-5-yl)-3-p-tolyl-3H-quinazolin-4-one] yielded a melting point of 192 to 193 °C.

Molecule `Cc1ccc(-n2c(-c3sc(NC(=O)c4ccccc4)nc3-c3ccccc3)nc3ccccc3c2=O)cc1` [Example 197, N-[5-(4-Oxo-3-p-tolyl-3,4-dihydro-quinazolin-2-yl)-4-phenyl-thiazole-2-yl]benzamide] showed a melting point of more than 275 °C.

`COc1ccccc1-n1c(-c2sc(Nc3ccccc3)nc2C)nc2ccccc2c1=O` [Example 202, 2-(4-Methyl-2-phenylamino-thiazol-5-yl)-3-(2-methoxyphenyl)-3H-quinazolin-4-one] had a melting point of 169 to 170 °C.

Molecule `COC(=O)Nc1nc(-c2ccccc2)c(-c2nc3ccccc3c(=O)n2-c2ccccc2OC)s1` [Example 204, [5-(4-Oxo-3-(2-methoxyphenyl)-3,4-dihydro-quinazolin-2-yl)-4-phenyl-thiazol-2-yl]-carbamic acid methyl ester] yielded a melting point of 228 to 230 °C.

`COc1cccc(-n2c(-c3sc(Nc4ccccc4)nc3C)nc3ccccc3c2=O)c1` [Example 210, 2-(4-Methyl-2-phenylamino-thiazol-5-yl)-3-(3-methoxyphenyl)-3H-quinazolin-4-one]: the melting point is more than 275 °C.

Take `COc1cccc(-n2c(-c3sc(Nc4ccc(Cl)cc4)nc3C)nc3ccccc3c2=O)c1` [Example 211, 2-[2-(4-Chlorophenylamino)-4-methyl-thiazol-5-yl]-3-(3-methoxyphenyl)-3H-quinazolin-4-one]: the melting point lay in the range of 243 to 244 °C.

For the molecule `O=c1c2ccccc2nc(-c2sc(Nc3ccc(Cl)cc3)nc2-c2ccccc2)n1-c1ccc(Cl)cc1` [Example 256, 2-[2-(4-Chloro-phenylamino)-4-phenyl-thiazol-5-yl]-3-(4-Chloro-phenyl)-3H-quinazolin-4-one], the inhibition at 1 µM worked out at 99% with NF-κB and 61% in the data set on AP-1. The inhibition in vivo at 50 mg/kg in the data set with carageenan-induced edema amounted to 84%.

As for `CNc1nc(C)c(-c2nc3ccccc3c(=O)n2-c2ccc(C(C)=O)cc2)s1` [Example 261, 2-(4-Methyl-2-methylamino-thiazol-5-yl)-3-(4-acetyl-phenyl)-3H-quinazolin-4-one], the results for the inhibition at 1 µM with NF-κB and in the data set with AP-1 were 71% and -33%, respectively. Further, in the data set on carageenan-induced edema, the inhibition in vivo at 50 mg/kg was 42%.

Regarding `CC(=O)c1ccc(-n2c(-c3sc(Nc4ccc(Cl)cc4)nc3C)nc3ccccc3c2=O)cc1` [Example 263, 2-[2-(4-Chlorophenylamino)-4-methyl-thiazol-5-yl]-3-(4-acetyl-phenyl)-3H-quinazolin-4-one], the inhibition at 1 µM in the data set on NF-κB is 0%; in the data set with AP-1, 2%. For the same molecule, the inhibition in vivo at 50 mg/kg in the data set with carageenan-induced edema worked out at 13%.

Regarding `CCOC(=O)Nc1nc(-c2ccccc2)c(-c2nc3ccccc3c(=O)n2-c2ccc(C(C)=O)cc2)s1` [Example 264, [5-(4-Oxo-3-(4-acetyl-phenyl)-3,4-dihydro-quinazolin-2-yl)-4-phenyl-thiazol-2-yl]-carbamic acid ethyl ester], the inhibition at 1 µM in the data set with NF-κB and with AP-1 was 25% in each case. Further, in the data set on carageenan-induced edema, the inhibition in vivo at 50 mg/kg stood at 40%.

In the case of `CC(=O)c1ccc(-n2c(-c3sc(Nc4ccc(Cl)cc4)nc3-c3ccccc3)nc3ccccc3c2=O)cc1` [Example 271, 2-[2-(4-Chlorophenylamino)-4-phenyl-thiazol-5-yl]-3-(4-acetyl-phenyl)-3H-quinazolin-4-one], the inhibition at 1 µM in the data set with NF-κB is -12%; in the data set on AP-1 it was 31%. Also, the inhibition in vivo at 50 mg/kg with carageenan-induced edema was 23%.

“{5-[3-(4-Methoxy-phenyl)-4-oxo-3,4-dihydro-quinazolin-yl]-thiazol-2-yl}-carbamic acid ethyl ester [Example 215]”: the “NFkB inhibition @ 1 uM” value in the data set on NF-κB was found to be 34. For the same molecule, in the data set on carageenan-induced edema, the “% Protection” value turned out to be 25%. Besides, the “AP-1 inhibition @ 1 uM” value with AP-1 is −6.

The term melting point denotes the temperature of the solid-liquid transition. One may read the inhibition as the relative decrease from the control value, in per cent.
